From US11912681B2, “Crystalline and salt forms of PPAR agonist compounds” (Mitobridge, Inc., priority 2016, dated 2024)
Blank lines part the entries; values can stand above or below the compound they belong to.

Tests used:
Type in all cases: physicochemical
[1] = Relative thermodynamic stability of hemisulfate form 1 and form 2 (DSC, competition slurry); settings: ethyl acetate, two days at 25° C. then eight days at 4° C., slurried with form 1
Procedure: […] Both forms were still present in the slurry, so the experiment was moved to 4° C.
After two days, both forms were still present in the slurry, so the experiment was moved to 4° C.

[2] = Stability of Compound A salts in water (XRPD); settings: about 20 mg in 1 mL water, overnight, 20° C., 850 rpm
Procedure: The stability of the sulfate, phosphate, L-lysine, and TRIS salts prepared in Example 3 were tested. Approximately 20 mg of each sample was combined with 1 mL of water in microcentrifuge tubes. The samples were allowed to mix overnight on a temperature controlled shaker at 20° C. at 850 rpm. The solids were characterized by XPRD to determine if a solid state form change occurred.

[3] = Thermodynamic stability form (slurry) screen, XRPD; settings: fifteen days
Procedure: The vials were sealed then placed onto temperature controlled stir plates and stirred for fifteen days at 500 rpm.

[4] = Chemical stability study, degradation and recovery by HPLC
Procedure: (§1) The material was stored at 4° C., 25° C./60% RH, 40° C., and 40° C./75% RH for eight weeks as well as stressed conditions of 70° C. and 70° C./75% RH for two weeks. In addition, photostability was also measured after exposing the material to two cycles of ICH conditions. Degradation and recovery was measured by HPLC. See Table 6 for HPLC results, including percent recovery of solids and relative retention time area percentages, compared against the standard stored at 4° C.

[5] = Physical stability on storage by XRPD; settings: all storage conditions of the stability study
Procedure: as §1
XRPD was used to check the physical stability.

[6] = Dynamic vapor sorption analysis (hygroscopicity)
Description: At approximately 90% RH, the material reversibly picks up approximately 3.5% water by weight.

competition slurry outcome (XRPD) [1]: remained a mixture of forms
SMILES: Cc1cnc(-c2ccc(C(F)(F)F)cc2)n1Cc1ccccc1OCCC[C@@H](C)CC(=O)O [Compound A hemisulfate form 2, (R)-3-methyl-6-(2-((5-methyl-2-(4-(trifluoromethyl)phenyl)-1H-imidazol-1-yl)methyl)phenoxy)hexanoic acid]

solid state form change (XRPD) after mixing in water [2]: no change in the solids
Results (solid state form after slurry) ([3]; 2-Methyl-THF, 25° C.): No change in form
Results (solid state form after slurry) ([3]; 2-Propanol, 50° C.): No change in form
Results (solid state form after slurry) ([3]; Acetone, 25° C.): No change in form
Results (solid state form after slurry) ([3]; Acetonitrile, 50° C.): No change in form
Results (solid state form after slurry) ([3]; CPME, 50° C.): No change in form
Results (solid state form after slurry) ([3]; Dichloromethane, 4° C.): No change in form
Results (solid state form after slurry) ([3]; Ethanol, 50° C.): No change in form
Results (solid state form after slurry) ([3]; Ethyl Acetate, 50° C.): No change in form
Results (solid state form after slurry) ([3]; Tetrahydrofuran, 25° C.): No change in form
Results (solid state form after slurry) ([3]; Toluene, 50° C.): No change in form
Results (solid state form after slurry) ([3]; Water, 25° C.): No change in form
Results (solid state form after slurry) ([3]; Water/Acetonitrile (1/3, v/v), 4° C.): No change in form
% recovery of solids (HPLC) ([4]; 4° C., 4 wk): 101%
% recovery of solids (HPLC) ([4]; 4° C., 8 wk): 100%
% recovery of solids (HPLC) ([4]; 25° C./60% RH, 4 wk): 100%
% recovery of solids (HPLC) ([4]; 25° C./60% RH, 8 wk): 99%
% recovery of solids (HPLC) ([4]; 40° C., 4 wk): 101%
% recovery of solids (HPLC) ([4]; 40° C., 8 wk): 101%
% recovery of solids (HPLC) ([4]; 40° C./75% RH, 4 wk): 101%
% recovery of solids (HPLC) ([4]; 40° C./75% RH, 8 wk): 100%
% recovery of solids (HPLC) ([4]; 70° C., 2 wk): 101%
% recovery of solids (HPLC) ([4]; 70° C./75% RH, 2 wk): 101%
% recovery of solids (HPLC) ([4]; Control (dark) of photostability): 100%
% recovery of solids (HPLC) ([4]; Photo, two cycles of ICH conditions): 98%
physical stability, solid state form (XRPD) [5]: No changes in solid state form
water picked up by weight (DVS) ([6]; 25° C., approximately 90% RH, reversible): approximately 3.5%
solid form after DVS (XRPD) ([6]; after DVS at 25° C.): remained Compound A hemisulfate form 1
SMILES: Cc1cnc(-c2ccc(C(F)(F)F)cc2)n1Cc1ccccc1OCCC[C@@H](C)CC(=O)O [Compound A hemisulfate form 1, (R)-3-methyl-6-(2-((5-methyl-2-(4-(trifluoromethyl)phenyl)-1H-imidazol-1-yl)methyl)phenoxy)hexanoic acid]
